The values below come from patent publication US6569638B1, “Method for screening compounds for the treatment of neoplasia” (Cell Pathways, Inc, priority 2000, dated 2003).

For one data set, the system named is PrEC cells. In words: Histone-associated fragmented DNA (apoptosis) in normal prostate epithelial cells. The conditions noted are these: 50 μM, up to 4 days. It counts as cell-based, human. How it is done:
The androgen-sensitive prostate tumor cell line, LNCaP (from ATCC (Rockville, Md.)) was propagated under standard conditions using […] medium containing 5% fetal calve serum and 2 mM glutamine. Primary prostate epithelial cell cultures (PrEC) derived from normal prostate (from Clonetics Inc. (San Diego, Calif.)) were grown under the same conditions as the tumor cell line except a serum-free medium optimized for the growth of such cultures was used (Clonetics Inc). For the experiments, LNCaP or PrEC cells were seeded in 96 well plates at a density of 10,000 cells per well. After 24 hours, the cells were treated with either vehicle (0.1% DMSO) or 50 μM Compound B (free base) solubilized in DMSO. After various drug treatment times ([…]) the cells were lysed and processed for measurement of histone-associated DNA as an indicator of apoptotic cell death (see, Piazza et al., Cancer Research 57: 2452-2459, 1997).

A further data set concerns RPMI-8226. Nature of the data set: Neutral red growth inhibition. The format is cell-based, human. The note with it: RPMI-8226, Myeloma, HCl salt. How it is done: (§1) Compound B's activity is not confined to activity against colon cancer cell lines or animal models of colon cancer. It has a broad range of anti-neoplastic effects in various neoplastic cell lines. Various types of human cancer cell lines were propagated under sterile conditions in RPMI 1640 medium with 10% fetal bovine serum, 2 mM L-glutamine and sodium bicarbonate. To determine growth inhibitory effects of Compound B, cells were seeded in 96-well plates at a density of 1000 cells per well. […] The effect of the drug on tumor cell growth was determined using the neutral red cytotoxicity assay following five days of continuous treatment. Neutral red is a dye that is selectively taken up by viable cells by an ATP-dependent transport mechanism.

The test system of a further data set is PANC-1. Nature of the data set: Neutral red growth inhibition. It counts as cell-based, human. The conditions noted are these: PANC-1, Pancreas, HCl salt. How it is done:
as §1

A further data set relates to K-562. Nature of the data set: Neutral red growth inhibition. It counts as cell-based, human. The conditions noted are these: K-562, Leukemia, HCl salt. How it is done: as §1
In the next data set the test system is Molt-4. In words: Neutral red growth inhibition. The format is cell-based, human. The note with it: Molt-4, Leukemia, HCl salt. How it is done:
as §1

The nature of data set [1]: Toxicity study in dogs (capsules). The format is in vivo. From the text:
(§2) Thus, on a single-dose basis, Compound B is not acutely toxic.

The format of data set [2] is in vivo. The conditions noted are these: for body weight gain: rat, in vivo.
Description: as §2

Data set [3] concerns aberrant crypt foci (ACF). Nature of the data set: Azoxymethane-induced aberrant crypt foci model. It counts as in vivo, male Fisher 344 rats. The conditions noted are these: for % Control (ACF/colon) / Mean ACF/colon (+SE): free base; for Mean ACF/colon (+SE): 5 weeks. How it is done:
The growth inhibition IC50 value obtained for Compound B was 0.7 μM in the SW-480 cell line. […] This established rodent model of azoxymethane (“AOM”)-induced carcinogenesis was used to assess the effects of Compound B (free base and salt) on colon cancer development in vivo. ACF are precursors to colonic tumors, and ACF inhibition is predictive of chemo-preventive efficacy.
In the rats in this experiment, ACF initiation was achieved by two consecutive weekly injections of the carcinogen. Compound B was administered one week prior to ACF initiation and for the duration of the experiment. ACFs were scored after 5 weeks of treatment. Compound B was administered orally to male Fisher 344 rats in the rat chow. Daily food consumption (mg/kg body weight) varied over the course of the study, and therefore Compound B dose was expressed a grams per kg of diet to provide a basis of comparison between doses. […] The experimental groups gained less weight than the controls, which was indicative of bioavailability. However, the weight differences were less than 10% and not considered to affect ACF formation.

Data set [4] has as its system adenomatous polyposis coli polyps. Nature of the data set: Clinical prevention trial of polyp formation in APC patients. It counts as in vivo, human. From the text: The first clinical trial involved patients with APC using exisulind. In that study, each patient had already had his/her colon removed, except for a small section of colon adjacent the rectum (where the small intestine was attached) to preserve rectal function. However, such a patient commonly forms polyps in the small remaining colonic section, which polyps require periodic removal (e.g., by electrocautery).
That trial where exisulind was selected was a prevention trial designed to evaluate the anti-neoplastic characteristics of the drug by comparing the cumulative number of new polyps formed over twelve months by the drug and placebo groups. Eligible patients were those who form between 9 and 44 polyps per year. Patients were fully ablated (had all polyps removed) at the start of the study, at the end of 6 months and at the end of 12 months. The study enrolled thirty-four eligible patients. […] Based on the median number of polyps produced in the first six months of the study, patients treated with exisulind developed approximately one-third the number of polyps as patients treated with placebo (median values 9 polyps/year and 26 polyps/year, respectively; p=0.013). […]

For another data set, the system named is PKG in SW480 cells. In words: Western blot of PKG expression. The conditions noted are these: 48 hours. The format is cell-based, human. How it is done:
SW480 cells treated with exisulind as described previously are harvested from the microfuge tubes by rinsing once with ice-cold PBS. The cells are lysed by modified RIPA buffer for 15 minutes with agitation. The cell lysate is spun down in a cold room. The supernatants are transferred to fresh microcentrifuge tubes immediately after spinning. BioRad DC Protein Assay (Temecula, Calif.) is performed to determine the protein concentrations in samples. The samples are normalized for protein concentration, as described above.
50 μg of each sample is loaded to 10% SDS gel. SDS-PAGE is performed, and the proteins then are transferred to a nitrocellulose membrane. The blotted nitrocellulose membrane are blocked in freshly prepared TBST containing 5% nonfat dry milk for one hour at room temperature with constant agitation.
A goat-anti-PKG primary antibody is diluted to the recommended concentration/dilution in fresh TBST/5% nonfat dry milk. The nitrocellulose membrane is placed in the primary antibody solution and incubated one hour at room temperature with agitation. The nitrocellulose membrane is washed three times for ten minutes each with TBST. The nitrocellulose membrane is incubated in a solution containing a secondary POD conjugated rabbit anti-goat antibody for 1 hour at room temperature with agitation. The nitrocellulose membrane is washed three times for ten minutes each time with TBST. […]

The structures appear in SMILES notation. Read-outs that look alike come from different tables or passages of the source.

`CC1=C(CC(=O)NCc2ccccc2)c2cc(F)ccc2/C1=C\c1ccncc1.Cl` [Compound B, (Z)-5-fluoro-2-methyl-(4-pyridylidene)-3-(N-benzyl)indenylacetamide hydrochloride]: the DNA fragmentation entry with PrEC cells was “did not affect DNA fragmentation”. In addition, the GI50 was determined as 1200 nM in the data set with RPMI-8226, 2200 nM in the data set with PANC-1, 1800 nM in the data set with K-562 and 1600 nM in the data set with Molt-4. Besides, the figures for the “oral LD50” value in data set [1] and in data set [2] (rats) were “greater than 1000 mg/kg” and greater than 4000 mg/kg, respectively. The signs of toxicity result in data set [1] (capsules, single 1000 mg/kg) is on record as “no signs of toxicity”; in data set [2] (rats, single oral doses up to and including 2000 mg/kg, 0.5% carboxy-methylcellulose vehicle) it was “no observable signs of toxicity”. In data set [1] (single dose and seven consecutive doses of 1000 mg/kg/day), the “signs of drug-related effects” value is “At no time in either dosing phase were any obvious signs of drug-related effects observed”. For the same molecule, the body weight gain entry in [2] (ip, 1000 mg/kg) is “reduced body weight gain”; in [2] (po, 4000 mg/kg) it was “body weight gains were slightly reduced”. The “intraperitoneal LD50” value in data set [2] (rats) is on record as “greater than 1000 mg/kg”. In addition, the “% Control (ACF/colon)” value is reported as 100% in data set [3] (0.5 g/kg diet), 75% in [3] (1 g/kg diet), 89% in data set [3] (1.5 g/kg diet) and 72% in data set [3] (2.0 g/kg diet). Also, the “Mean ACF/colon (+SE)” value in [3] (0.5 g/kg diet) was 149 ± 14; in data set [3] (1 g/kg diet) it was 111 ± 9; in [3] (1.5 g/kg diet), 132 ± 4; in data set [3] (2.0 g/kg diet) it was 107 ± 15. The “body weight difference versus controls” value in data set [3] (rats, Compound B in rat chow, over the experiment) was “less than 10%”.
In the case of `CC1=C(CC(=O)O)c2cc(F)ccc2/C1=C\c1ccc(S(C)(=O)=O)cc1` [exisulind, 5-fluoro-2-methyl-1-(p-methylsulfonylbenzylidene)-3-indenylacetic acid], the “median number of polyps” value is 18 polyps/year in data set [4] (entire 12 months of the study) and 9 polyps/year in data set [4] (first six months of the study). In the data set with PKG in SW480 cells, the “PKG level by Western blot” value is “the increase of PKG”.
